What is called Ki is the dissociation constant of the complex between target and ligand, obtained from inhibition or displacement. Usually IC50 stands for the concentration that gives 50% inhibition. Read a high IC50 as weaker potency in that assay.

The structures appear in SMILES notation. Activity calls are given as the source filed them. The rule behind the calls is not given here.

Consider four compounds from ChEMBL document CHEMBL3580537, “Neristatin 1 provides critical insight into bryostatin 1 structure-function relationships” (J Nat Prod, 2015).

In assay [1] the test system is U-937. Briefly: Growth inhibition of human U937 cells at 0.1 nM to 1000 nM after 72 hrs by particle counter based cell counting assay. Format: functional.
Assay [2] relates to U-937. Briefly: Induction of cell attachment of human U937 cells at 0.1 nM to 1000 nM after 60 hrs by particle counter based cell counting assay. Format: functional.
Assay [3] relates to U-937. Briefly: Induction of TNFalpha secretion in human U937 cells at 0.01 nM to 10000 nM by real time qPCR method. The class given is functional, cell-based. (Real-time PCR tracks product formation cycle by cycle.)
Assay [4] addresses Protein kinase C alpha type (Homo sapiens, UniProt P17252). Briefly: Inhibition of [20-3H]phorbol 12,13-dibutyrate binding to human PKCalpha by scintillation counting based poly(ethylene) glycol precipitation assay.
Assay [5] in a line: Growth inhibition of human Toledo cells after 72 hrs by particle counter based cell counting assay. The class given is functional.
Assay [6] relates to Toledo. Briefly: Potency index, ratio of IC50 for Merle-43 to IC50 for test compound against human Toledo cells after 72 hrs by particle counter based cell counting assay. Format: functional.
The subject of assay [7] is U-937. Briefly: Suppression of PMA-induced growth inhibition of human U937 cells at 1000 nM after 72 hrs by particle counter based cell counting assay. Format: functional.
The test system of assay [8] is U-937. Briefly: Inhibition of PMA-induced cell attachment of human U937 cells at 1000 nM after 60 hrs by particle counter based cell counting assay. Format: functional.
In assay [9] the test system is U-937. Briefly: Inhibition of PMA-induced TNFalpha secretion in human U937 cells at 0.01 nM to 10000 nM by real time qPCR method. Format: functional, cell-based.
For assay [10], the system named is Toledo. Briefly: Potency index, ratio of IC50 for neristatin-1 to IC50 for test compound against human Toledo cells after 72 hrs by particle counter based cell counting assay. Format: functional.
Assay [11] concerns U-937. Briefly: Growth inhibition of human U937 cells at 0.1 nM to 3000 nM after 72 hrs by particle counter based cell counting assay. The class given is functional.
Assay [12] relates to U-937. Briefly: Growth inhibition of human U937 cells at 1000 nM in presence of 10 nM PMA after 72 hrs by particle counter based cell counting assay. Format: functional.
For assay [13], the system named is U-937. Briefly: Induction of cell attachment of human U937 cells at 0.1 nM to 3000 nM after 60 hrs by particle counter based cell counting assay. Format: functional.
Assay [14] relates to U-937. Briefly: Induction of TNFalpha secretion in human U937 cells at 0.01 nM to 10000 nM by real time qPCR method relative to PMA. Format: functional.

In the case of `CCCCCCCCCCCCCC(=O)O[C@@H]1[C@@H](C)[C@@]2(O)[C@@H](C=C(CO)C[C@]3(O)C(=O)C(C)=C[C@@H]23)[C@@H]2C(C)(C)[C@]12OC(C)=O` [PHORBOL MYRISTATE ACETATE], the “growth inhibition (GI)” value in [1] is reported as 50%. The result in [2] and in assay [3] was Active.
The compound `COC(=O)/C=C1/C[C@H]2C[C@]3(O)O[C@H](C[C@@H](O)CC(=O)O[C@H](C)[C@H](O)C[C@@H]4C[C@@H]5CC(=O)O[C@@]5(O4)C(=O)C(C)(C)/C=C/[C@@H](C1)O2)C[C@H](OC(=O)C(C)(C)C)C3(C)C` had a Ki in assay [4] of 21.2 nM. The compound further displayed an IC50 in assay [5] of 1.58 nM. Also, the “Ratio IC50” value in [6] came out at 2.5. The “growth inhibition (GI)” value in assay [1] was “inactive”. Besides, the inhibition entry in assay [7], in [8] and in [9] was “Active” in each case. Further, the result in assay [2] and in assay [3] was inactive.
`CCC/C=C/C=C/C(=O)O[C@H]1/C(=C/C(=O)OC)C[C@H]2C[C@H]([C@@H](C)O)OC(=O)C[C@H](O)C[C@@H]3C[C@H](OC(C)=O)C(C)(C)[C@](O)(C[C@@H]4C/C(=C/C(=O)OC)C[C@H](/C=C/C(C)(C)[C@]1(O)O2)O4)O3` [BRYOSTATIN 1] registered a Ki in assay [4] of 0.48 nM. Further, the “Ratio IC50” value in assay [10] is given as 17. Also, the “growth inhibition (GI)” value in assay [1] was “inactive”. The inhibition result in assay [7], in assay [8] and in assay [9] was “Active” each time. The result in assay [2] and in assay [3] was inactive.
With `CCCCCCCC(=O)O[C@H]1/C(=C/C(=O)OC)C[C@H]2C[C@@H](O)[C@@H](C)OC(=O)C[C@H](O)C[C@@H]3C[C@H](OC(C)=O)C(C)(C)[C@](O)(CCOC(=O)/C=C/C(C)(C)[C@]1(O)O2)O3`, the “growth inhibition (GI)” value in assay [11] and in assay [12] was “Active” throughout. Also, in assay [13], the outcome was Active. Further, the Activity in assay [14] is recorded as 60%.
